Data reported in ChEMBL document CHEMBL6120977, “Structure-Affinity-Pharmacokinetics Relationships of Novel 18F-Labeled 1,4-Diazepane Derivatives for Orexin 1 Receptor Imaging” (J Med Chem, 2024).

What was measured:
[1] = Biodistribution in male ddY mouse brain administered intravenously and measured at 60 mins postinjection by gamma counter analysis; format: ADME, organism-based; conditions: in vivo, iv, 1 h
[2] = Biodistribution in male ddY mouse brain administered intravenously and measured at 10 mins postinjection by gamma counter analysis; format: ADME, organism-based; conditions: in vivo, iv
[3] = Biodistribution in male ddY mouse pancreas administered intravenously and measured at 30 mins postinjection by gamma counter analysis; format: ADME, organism-based; conditions: in vivo, iv, 0.5 h
[4] = Biodistribution in male ddY mouse liver administered intravenously and measured at 10 mins postinjection by gamma counter analysis; format: ADME, organism-based; conditions: in vivo, iv
[5] = Biodistribution in male ddY mouse heart administered intravenously and measured at 30 mins postinjection by gamma counter analysis; format: ADME, organism-based; conditions: in vivo, iv, 0.5 h
[6] = Biodistribution in male ddY mouse bone administered intravenously and measured at 60 mins postinjection by gamma counter analysis; format: ADME, organism-based, Bone element; conditions: in vivo, iv, 1 h
[7] = Biodistribution in male ddY mouse pancreas administered intravenously and measured at 10 mins postinjection by gamma counter analysis; format: ADME, organism-based; conditions: in vivo, iv
[8] = Biodistribution in male ddY mouse spleen administered intravenously and measured at 60 mins postinjection by gamma counter analysis; format: ADME, organism-based; conditions: in vivo, iv, 1 h
[9] = Biodistribution in male ddY mouse blood administered intravenously and measured at 30 mins postinjection by gamma counter analysis; format: ADME, organism-based; conditions: in vivo, iv, 0.5 h
[10] = Biodistribution in male ddY mouse liver administered intravenously and measured at 2 mins postinjection by gamma counter analysis; format: ADME, organism-based; conditions: in vivo, iv
[11] = Biodistribution in male ddY mouse lung administered intravenously and measured at 60 mins postinjection by gamma counter analysis; format: ADME, organism-based; conditions: in vivo, iv, 1 h
[12] = Biodistribution in male ddY mouse kidney administered intravenously and measured at 60 mins postinjection by gamma counter analysis; format: ADME, organism-based; conditions: in vivo, iv, 1 h
[13] = Biodistribution in male ddY mouse bone administered intravenously and measured at 2 mins postinjection by gamma counter analysis; format: ADME, organism-based, Bone element; conditions: in vivo, iv
[14] = Biodistribution in male ddY mouse pancreas administered intravenously and measured at 2 mins postinjection by gamma counter analysis; format: ADME, organism-based; conditions: in vivo, iv
[15] = Biodistribution in male ddY mouse heart administered intravenously and measured at 60 mins postinjection by gamma counter analysis; format: ADME, organism-based; conditions: in vivo, iv, 1 h
[16] = Biodistribution in male ddY mouse lung administered intravenously and measured at 2 mins postinjection by gamma counter analysis; format: ADME, organism-based; conditions: in vivo, iv
[17] = Biodistribution in male ddY mouse pancreas administered intravenously and measured at 60 mins postinjection by gamma counter analysis; format: ADME, organism-based; conditions: in vivo, iv, 1 h
[18] = Biodistribution in male ddY mouse lung administered intravenously and measured at 30 mins postinjection by gamma counter analysis; format: ADME, organism-based; conditions: in vivo, iv, 0.5 h
[19] = Biodistribution in male ddY mouse spleen administered intravenously and measured at 2 mins postinjection by gamma counter analysis; format: ADME, organism-based; conditions: in vivo, iv
[20] = Biodistribution in male ddY mouse lung administered intravenously and measured at 10 mins postinjection by gamma counter analysis; format: ADME, organism-based; conditions: in vivo, iv
[21] = Biodistribution in male ddY mouse spleen administered intravenously and measured at 10 mins postinjection by gamma counter analysis; format: ADME, organism-based; conditions: in vivo, iv
[22] = Biodistribution in male ddY mouse kidney administered intravenously and measured at 30 mins postinjection by gamma counter analysis; format: ADME, organism-based; conditions: in vivo, iv, 0.5 h
[23] = Biodistribution in male ddY mouse blood administered intravenously and measured at 60 mins postinjection by gamma counter analysis; format: ADME, organism-based; conditions: in vivo, iv, 1 h
[24] = Biodistribution in male ddY mouse kidney administered intravenously and measured at 2 mins postinjection by gamma counter analysis; format: ADME, organism-based; conditions: in vivo, iv
[25] = Biodistribution in male ddY mouse stomach administered intravenously and measured per organ at 30 mins postinjection by gamma counter analysis; format: ADME, organism-based; conditions: in vivo, iv, 0.5 h
[26] = Biodistribution in male ddY mouse intestine administered intravenously and measured at 30 mins postinjection by gamma counter analysis; format: ADME, organism-based; conditions: in vivo, iv, 0.5 h
[27] = Biodistribution in male ddY mouse liver administered intravenously and measured at 30 mins postinjection by gamma counter analysis; format: ADME, organism-based; conditions: in vivo, iv, 0.5 h
[28] = Biodistribution in male ddY mouse stomach administered intravenously and measured per organ at 60 mins postinjection by gamma counter analysis; format: ADME, organism-based; conditions: in vivo, iv, 1 h
[29] = Biodistribution in male ddY mouse stomach administered intravenously and measured per organ at 10 mins postinjection by gamma counter analysis; format: ADME, organism-based; conditions: in vivo, iv
[30] = Biodistribution in male ddY mouse brain administered intravenously and measured at 2 mins postinjection by gamma counter analysis; format: ADME, organism-based; conditions: in vivo, iv
[31] = Biodistribution in male ddY mouse heart administered intravenously and measured at 10 mins postinjection by gamma counter analysis; format: ADME, organism-based; conditions: in vivo, iv
[32] = Biodistribution in male ddY mouse intestine administered intravenously and measured at 2 mins postinjection by gamma counter analysis; format: ADME, organism-based; conditions: in vivo, iv
[33] = Biodistribution in male ddY mouse brain administered intravenously and measured at 30 mins postinjection by gamma counter analysis; format: ADME, organism-based; conditions: in vivo, iv, 0.5 h
[34] = Biodistribution in male ddY mouse intestine administered intravenously and measured at 60 mins postinjection by gamma counter analysis; format: ADME, organism-based; conditions: in vivo, iv, 1 h
[35] = Biodistribution in male ddY mouse kidney administered intravenously and measured at 10 mins postinjection by gamma counter analysis; format: ADME, organism-based; conditions: in vivo, iv
[36] = Biodistribution in male ddY mouse bone administered intravenously and measured at 10 mins postinjection by gamma counter analysis; format: ADME, organism-based, Bone element; conditions: in vivo, iv
[37] = Biodistribution in male ddY mouse heart administered intravenously and measured at 2 mins postinjection by gamma counter analysis; format: ADME, organism-based; conditions: in vivo, iv
[38] = Biodistribution in male ddY mouse stomach administered intravenously and measured per organ at 2 mins postinjection by gamma counter analysis; format: ADME, organism-based; conditions: in vivo, iv
[39] = Biodistribution in male ddY mouse bone administered intravenously and measured at 30 mins postinjection by gamma counter analysis; format: ADME, organism-based, Bone element; conditions: in vivo, iv, 0.5 h
[40] = Biodistribution in male ddY mouse intestine administered intravenously and measured at 10 mins postinjection by gamma counter analysis; format: ADME, organism-based; conditions: in vivo, iv
[41] = Biodistribution in male ddY mouse blood administered intravenously and measured at 10 mins postinjection by gamma counter analysis; format: ADME, organism-based; conditions: in vivo, iv
[42] = Biodistribution in male ddY mouse liver administered intravenously and measured at 60 mins postinjection by gamma counter analysis; format: ADME, organism-based; conditions: in vivo, iv, 1 h
[43] = Biodistribution in male ddY mouse blood administered intravenously and measured at 2 mins postinjection by gamma counter analysis; format: ADME, organism-based; conditions: in vivo, iv
[44] = Biodistribution in male ddY mouse spleen administered intravenously and measured at 30 mins postinjection by gamma counter analysis; format: ADME, organism-based; conditions: in vivo, iv, 0.5 h

Drug uptake [1]: 0.15 % ID/g
Drug uptake [2]: 1.49 % ID/g
Drug uptake [3]: 1.47 % ID/g
Drug uptake [4]: 30.6 % ID/g
Drug uptake [5]: 2.19 % ID/g
Drug uptake [6]: 37.8 % ID/g
Drug uptake [7]: 4.87 % ID/g
Drug uptake [8]: 0.45 % ID/g
Drug uptake [9]: 2.2 % ID/g
Drug uptake [10]: 17.2 % ID/g
Drug uptake [11]: 0.7 % ID/g
Drug uptake [12]: 1.64 % ID/g
Drug uptake [13]: 2.51 % ID/g
Drug uptake [14]: 8.33 % ID/g
Drug uptake [15]: 0.7 % ID/g
Drug uptake [16]: 9.43 % ID/g
Drug uptake [17]: 0.53 % ID/g
Drug uptake [18]: 2.6 % ID/g
Drug uptake [19]: 4.4 % ID/g
Drug uptake [20]: 5.68 % ID/g
Drug uptake [21]: 4.09 % ID/g
Drug uptake [22]: 4.53 % ID/g
Drug uptake [23]: 0.64 % ID/g
Drug uptake [24]: 11.9 % ID/g
Drug uptake [25]: 1.58 %ID
Drug uptake [26]: 11.6 % ID/g
Drug uptake [27]: 10.1 % ID/g
Drug uptake [28]: 1.97 %ID
Drug uptake [29]: 4.17 %ID
Drug uptake [30]: 3.81 % ID/g
Drug uptake [31]: 10.2 % ID/g
Drug uptake [32]: 3.5 % ID/g
Drug uptake [33]: 0.39 % ID/g
Drug uptake [34]: 15.3 % ID/g
Drug uptake [35]: 7.95 % ID/g
Drug uptake [36]: 8.73 % ID/g
Drug uptake [37]: 9.03 % ID/g
Drug uptake [38]: 2.38 %ID
Drug uptake [39]: 25.8 % ID/g
Drug uptake [40]: 8.75 % ID/g
Drug uptake [41]: 3.87 % ID/g
Drug uptake [42]: 4.12 % ID/g
Drug uptake [43]: 4.74 % ID/g
Drug uptake [44]: 1.43 % ID/g
SMILES: Cc1ccc(-n2nccn2)c(C(=O)N2CCCN(c3nc4cc([18F])ccc4s3)C[C@@H]2C)c1
